{
  "source": "paper PMC6131691",
  "about": "(Chirality, 2012)",
  "key": {"1321N1 tumors": {"system": "1321N1 tumors", "details": "tumors implanted in the flank of SKID mice; cited from earlier work"}, "[1]": {"system": "human-derived 1321N1 astrocytoma cells", "details": "read-out: IC50, inhibition of mitogenesis; cited from earlier work"}, "SULT1A3 [2]": {"system": "SULT1A3", "experiment": "cDNA-expressed SULT isoform screen, SULT1A3", "details": "relative to SULT1A1*1, SULT1A1*2, SULT1E1"}, "SULT isoforms": {"system": "SULT isoforms", "experiment": "cDNA-expressed SULT isoform screen, comparison of stereoisomers across isoforms", "format": "in vitro ADME, human", "details": "in each of the SULT isoforms"}, "[3]": {"system": "human intestinal S9 fractions (mixture of SULT enzymes)", "experiment": "Kinetics of sulfation of MF stereoisomers by human intestinal S9 fractions", "details": "read-out: Km (Michaelis constant) of sulfation; human intestinal S9 1 mg/ml, 200 µM PAPS, pH 7.4, 60 min; mean ± SE"}, "[4]": {"details": "humans; cited from earlier work"}, "[5]": {"system": "human intestinal S9 fractions (mixture of SULT enzymes)", "details": "pH 7.4"}, "[6]": {"system": "human intestinal S9 fractions (mixture of SULT enzymes)", "details": "for Reduction of (R,R)-MF conjugation at equimolar concentrations: equimolar with 50 µM [3H]-(R,R)-MF"}, "SULT1A3 [7]": {"system": "SULT1A3"}, "β2-AR": {"system": "β2-AR", "details": "relative to (R,R)-MF; ref unpublished data; cited from earlier work"}},
  "note": "Where two headings read alike, the source gives them in different places. Marks after values point to notes of the source that are not given here.",
  "data": [
    {"compound": "COc1ccc(C[C@@H](C)NC[C@H](O)c2cc(O)cc(O)c2)cc1", "note": "[(R,R)-MF, (R,R)-4-methoxyfenoterol]", "values": [
      {"measurement": "Growth of 1321N1 tumors", "setting": "1321N1 tumors", "result": "retards the growth"},
      {"measurement": "IC50", "setting": "[1]", "result": 0.00017, "unit": "µM"},
      {"measurement": "SULT1A3-mediated conjugation, greater than the sulfation by the other isoforms", "setting": "SULT1A3 [2]", "result": "1.5- to 2 fold"},
      {"measurement": "Sulfation rate compared with (S,S)-MF, (R,S)-MF and (S,R)-MF", "setting": "SULT isoforms", "result": "significantly (P < 0.0001) lower"},
      {"measurement": "Km", "setting": "[3]", "result": "62 ± 1.27", "unit": "µM"}
    ]},
    {"compound": "CC(Cc1ccc(O)cc1)NCC(O)c1cc(O)cc(O)c1", "note": "[(R,R;S,S)-Fen, fenoterol]", "values": [
      {"measurement": "Oral bioavailability", "setting": "[4]", "result": "~ 2%"}
    ]},
    {"compound": "COc1ccc(CC(C)NCC(O)c2cc(O)cc(O)c2)cc1", "note": "[(R,S)-MF, 4-methoxyfenoterol]", "values": [
      {"measurement": "SULT1A1*2-catalyzed sulfation, greater than SULT1A3 and SULT1E1", "setting": "SULT1A1*2", "result": 1.5, "unit": "fold"},
      {"measurement": "SULT1A1*1-catalyzed sulfation, greater than SULT1A3 and SULT1E1", "setting": "SULT1A1*1", "result": 1.5, "unit": "fold"},
      {"measurement": "Km", "setting": "[5]", "result": "68.5 ± 3.2", "unit": "µM"},
      {"measurement": "IC50", "setting": "[6]", "result": "> 400", "unit": "µM"},
      {"measurement": "Reduction of (R,R)-MF conjugation at equimolar concentrations", "setting": "[6]; human intestinal S9", "result": "little effect"}
    ]},
    {"compound": "COc1ccc(CC(C)NCC(O)c2cc(O)cc(O)c2)cc1", "note": "[(S,R)-MF, 4-methoxyfenoterol]", "values": [
      {"measurement": "SULT1A3-mediated conjugation, greater than the sulfation by the other isoforms", "setting": "SULT1A3 [7]", "result": "1.5- to 2 fold"},
      {"measurement": "Km", "setting": "[5]", "result": 52, "unit": "µM"},
      {"measurement": "β2-AR agonist activity as share of that of (R,R)-MF", "setting": "β2-AR", "result": "less than 5%"},
      {"measurement": "Reduction in the production of (R,R)-MF sulfate", "setting": "[6]; 2:1 ratio of (S,R)-MF/(R,R)-MF, human intestinal S9", "result": 61, "unit": "%"},
      {"measurement": "Reduction of (R,R)-MF conjugation at equimolar concentrations", "setting": "[6]; human intestinal S9", "result": "~ 40%"}
    ]},
    {"compound": "COc1ccc(CC(C)NCC(O)c2cc(O)cc(O)c2)cc1", "note": "[(S,S)-MF, 4-methoxyfenoterol]", "values": [
      {"measurement": "Activity of SULT1E1, lower than SULT1A1*1, SULT1A1*2 and SULT1A3", "setting": "SULT1E1", "result": 1.3, "unit": "fold"},
      {"measurement": "Km", "setting": "[5]", "result": 89, "unit": "µM"},
      {"measurement": "Km (Michaelis constant) of sulfation", "setting": "[5]", "result": "89.21 ^a ± 2.59 µM"},
      {"measurement": "IC50", "setting": "[6]", "result": "> 200", "unit": "µM"},
      {"measurement": "Reduction of (R,R)-MF conjugation at equimolar concentrations", "setting": "[6]; human intestinal S9", "result": "little effect"}
    ]}
  ]
}
